The subject of the experiment is OF1 mice. The experiment can be described thus: Maximal electroshock test (MES Test). The note with it: for responders at 50 mg/kg: Mus musculus, po, p.o., read-out: %-Protection. The format is in vivo. A digest of the protocol: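 Compound given p.o. (typically 50 mg/kg) 1 h before tonic-clonic convulsions were induced via temporal electrodes (50 Hz, 18 mA, 0.2 s); seizure lasting 3 s or less counted as protection. Read-out is percent protected of five mice per condition; ED50 calculated, blood exposure sampled after shock.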
On the technique in general: The maximal electroshock test induces tonic seizures with an electrical stimulus.

SMILES strings stand for the structures. Where two headings read alike, the source gives them in different places.

With `CCCCC(=O)N(n1c(=O)[nH]c2cc(C(F)(F)F)c(-n3ccnc3)cc2c1=O)S(C)(=O)=O` [Example 4.02, N-(6-Imidazol-1-yl-2,4-dioxo-7-trifluoromethyl-1,4-dihydro-2H-quinazolin-3-yl)-N-pentanoyl-methanesulfonamide], under “pre-treatment time −1 h”, the responders at 50 mg/kg was found to be 100%. Moreover, where the note is “single 50 mg/kg p.o. dose, 30 min after treatment, MES Test”, the “%-seizure protection” value amounted to 100%.
As for `CC(=O)N(n1c(=O)[nH]c2cc(C(F)(F)F)c(-n3ccnc3)cc2c1=O)S(C)(=O)=O` [Example 4.03, N-Acetyl-N-(6-imidazol-1-yl-2,4-dioxo-7-trifluoromethyl-1,4-dihydro-2H-quinazolin-3-yl)-methanesulfonamide], where the note is “pre-treatment time −1 h”, the responders at 50 mg/kg is 40%.
Turning to `CCC(=O)N(n1c(=O)[nH]c2cc(C(F)(F)F)c(-n3ccnc3)cc2c1=O)S(C)(=O)=O` [Example 4.04, N-(6-Imidazol-1-yl-2,4-dioxo-7-trifluoromethyl-1,4-dihydro-2H-quinazolin-3-yl)-N-propionyl-methanesulfonamide], the responders at 50 mg/kg (pre-treatment time −2 h (footnote a)) was 40%.
Regarding `CC(C)C(=O)N(n1c(=O)[nH]c2cc(C(F)(F)F)c(-n3ccnc3)cc2c1=O)S(C)(=O)=O` [Example 4.05, N-(6-Imidazol-1-yl-2,4-dioxo-7-trifluoromethyl-1,4-dihydro-2H-quinazolin-3-yl)-N-isobutyryl-methanesulfonamide], the responders at 50 mg/kg (pre-treatment time −1 h) is 80%.
On to `CC(C)CC(=O)N(n1c(=O)[nH]c2cc(C(F)(F)F)c(-n3ccnc3)cc2c1=O)S(C)(=O)=O` [Example 4.06, N-(6-Imidazol-1-yl-2,4-dioxo-7-trifluoromethyl-1,4-dihydro-2H-quinazolin-3-yl)-N-(3-methyl-butyryl)-methanesulfonamide], for which the responders at 50 mg/kg (pre-treatment time −1 h) stood at 20%.
Same read-out and setting: the same measure for `CS(=O)(=O)N(C(=O)C1CCCC1)n1c(=O)[nH]c2cc(C(F)(F)F)c(-n3ccnc3)cc2c1=O` [Example 4.07]: 40%; for `CCCCCC(=O)N(n1c(=O)[nH]c2cc(C(F)(F)F)c(-n3ccnc3)cc2c1=O)S(C)(=O)=O` [Example 4.08, N-Hexanoyl-N-(6-imidazol-1-yl-2,4-dioxo-7-trifluoromethyl-1,4-dihydro-2H-quinazolin-3-yl)-methanesulfonamide]: 20%; for `CCCC(=O)N(n1c(=O)[nH]c2cc(C(F)(F)F)c(-n3ccnc3)cc2c1=O)S(C)(=O)=O` [Example 4.09, N-Butyryl-N-(6-imidazol-1-yl-2,4-dioxo-7-trifluoromethyl-1,4-dihydro-2H-quinazolin-3-yl)-methanesulfonamide]: 40%.
As to `CC(=O)N(n1c(=O)[nH]c2cc(C(F)(F)F)c(-c3ccnn3C(C)C)cc2c1=O)S(C)(=O)=O` [Example 5.01, N-Acetyl-N-[6-(2-isopropyl-2H-pyrazol-3-yl)-2,4-dioxo-7-trifluoromethyl-1,4-dihydro-2H-quinazolin-3-yl]-methanesulfonamide], the responders at 50 mg/kg (pre-treatment time −1 h) was found to be 60%.
For the molecule `CCC(=O)N(n1c(=O)[nH]c2cc(C(F)(F)F)c(-c3ccnn3C(C)C)cc2c1=O)S(C)(=O)=O` [Example 5.02, N-[6-(2-Isopropyl-2H-pyrazol-3-yl)-2,4-dioxo-7-trifluoromethyl-1,4-dihydro-2H-quinazolin-3-yl]-N-propionyl-methanesulfonamide], the responders at 50 mg/kg (pre-treatment time −1 h) was 20%.
On the same count and under the same terms, the result for `CCCC(=O)N(n1c(=O)[nH]c2cc(C(F)(F)F)c(-c3ccnn3C(C)C)cc2c1=O)S(C)(=O)=O` [Example 5.03, N-Butyryl-N-[6-(2-isopropyl-2H-pyrazol-3-yl)-2,4-dioxo-7-trifluoromethyl-1,4-dihydro-2H-quinazolin-3-yl]-methanesulfonamide] reads 40%; that for `CCCCCC(=O)N(n1c(=O)[nH]c2cc(C(F)(F)F)c(-c3ccnn3C(C)C)cc2c1=O)S(C)(=O)=O` [Example 5.04, N-Hexanoyl-N-[6-(2-isopropyl-2H-pyrazol-3-yl)-2,4-dioxo-7-trifluoromethyl-1,4-dihydro-2H-quinazolin-3-yl]-methanesulfonamide], 20%.
